The results in this text go back to publication PMC11294565, “Structural insights into strigolactone catabolism by carboxylesterases reveal a conserved conformational regulation” (Nature Communications, 2024).

Experiment [1] deals with T1, AtCXE15 (Arabidopsis thaliana, UniProt Q9FG13).
T1 construct: gene CXE15; full length (residues 1-329; NTH cap 1-21, core 32-329), E. coli BL21(DE3), 6xHis-SUMO tag cleaved off
Put plainly: fluorescence hydrolysis assay, Michaelis-Menten fit. The following applies: 50 mM MES pH 6.0, 250 mM NaCl, 1 mM DTT; 1 μM enzyme. Format: biochemical.

For experiment [2], the system named is T2, CXE15^CXE20-NTα/β.
T2 construct: CXE15 core with its NTH replaced by the NT-α/β of CXE20 (one polypeptide)
The experiment is described as above. It is filed as biochemical, Arabidopsis thaliana. The following applies: 50 mM MES pH 6.0, 250 mM NaCl, 1 mM DTT; 5 μM enzyme.

Experiment [3] has as its system T3, CXE20^CXE15-NTH.
T3 construct: CXE20 core with its NT-α/β replaced by the NTH of CXE15 (one polypeptide)
The experiment is described as above. Format: biochemical, Arabidopsis thaliana. Particulars: 50 mM MES pH 6.0, 250 mM NaCl, 1 mM DTT; 2 μM enzyme.

The target of experiment [4] is T4, AtCXE20 (Arabidopsis thaliana, UniProt Q9LVB8).
T4 construct: gene CXE20; full length (residues 1-327; cap 1-26, core 53-327), codon-optimized synthetic gene, E. coli BL21(DE3), 6xHis-SUMO tag cleaved off
T4 sequence (Q9LVB8 1-327): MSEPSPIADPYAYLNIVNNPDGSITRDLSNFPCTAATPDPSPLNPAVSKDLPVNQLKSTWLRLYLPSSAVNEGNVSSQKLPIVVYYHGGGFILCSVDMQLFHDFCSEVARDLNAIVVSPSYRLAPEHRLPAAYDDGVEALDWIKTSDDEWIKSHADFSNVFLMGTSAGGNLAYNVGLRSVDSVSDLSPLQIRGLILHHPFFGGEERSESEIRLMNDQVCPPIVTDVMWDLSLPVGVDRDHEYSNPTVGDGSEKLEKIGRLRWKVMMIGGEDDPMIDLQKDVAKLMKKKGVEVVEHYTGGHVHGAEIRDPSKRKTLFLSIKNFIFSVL
The description is as above. The following applies: 50 mM MES pH 6.0, 250 mM NaCl, 1 mM DTT; 1 μM enzyme. It is filed as biochemical.

Experiment [5] has as its target CXE15^ΔNTH (Arabidopsis thaliana, UniProt Q9FG13). The description is as above. It is filed as biochemical. Particulars: 50 mM MES pH 6.0, 250 mM NaCl, 1 mM DTT; 2 μM enzyme; no NTH peptide added.
Experiment [6] has as its target T1, AtCXE15. Description: X-ray crystal structure (soak), […] Å. Particulars: covalent; D-ring of GR24 linked to S169; 1 mM rac-GR24 soak. Format: binding.
Experiment [7] has as its target T1, AtCXE15. Put plainly: differential scanning fluorimetry (Sypro Orange). Format: binding. The following applies: 10 μM protein, 500 μM rac-GR24; 20 mM HEPES, 150 mM NaCl, 1 mM TCEP. (DSF heats the sample and reads unfolding from a dye or from intrinsic fluorescence.)
The target in experiment [8] is T4, AtCXE20. Description: differential scanning fluorimetry (Sypro Orange). Format: binding. Particulars: 10 μM protein, 500 μM rac-GR24; 20 mM HEPES, 150 mM NaCl, 1 mM TCEP.

T1 sequence (Q9FG13 whole entry, the tested form may be a part): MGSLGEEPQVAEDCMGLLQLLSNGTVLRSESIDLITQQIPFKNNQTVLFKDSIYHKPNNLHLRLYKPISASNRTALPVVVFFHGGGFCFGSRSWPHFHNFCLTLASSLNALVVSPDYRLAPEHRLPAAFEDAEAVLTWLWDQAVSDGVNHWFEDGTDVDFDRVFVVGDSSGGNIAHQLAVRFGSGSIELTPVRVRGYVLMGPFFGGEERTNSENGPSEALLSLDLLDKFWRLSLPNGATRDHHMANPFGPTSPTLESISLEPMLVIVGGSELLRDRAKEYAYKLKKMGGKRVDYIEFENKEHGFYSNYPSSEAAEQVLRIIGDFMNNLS
Sequence of CXE15^ΔNTH (Q9FG13 46-329, stated change not applied): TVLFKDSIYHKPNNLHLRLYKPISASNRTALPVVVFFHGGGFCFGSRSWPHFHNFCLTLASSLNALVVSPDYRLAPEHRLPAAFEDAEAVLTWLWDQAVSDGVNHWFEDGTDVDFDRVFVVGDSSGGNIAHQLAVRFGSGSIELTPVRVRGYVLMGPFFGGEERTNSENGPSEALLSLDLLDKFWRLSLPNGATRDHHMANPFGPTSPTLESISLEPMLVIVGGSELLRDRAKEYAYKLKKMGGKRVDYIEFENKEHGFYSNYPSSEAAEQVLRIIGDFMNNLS

`CCOC(=O)c1ccccc1-c1c2ccc(=O)cc-2oc2cc(OC3C=C(C)C(=O)O3)ccc12` (centres unmarked) [Yoshimulactone Green]: the Km (in general, the concentration of substrate that gives half-maximal velocity) is 21 ± 4.7 µM in experiment [1]; 19.6 ± 2.5 µM in experiment [2]; 7.5 ± 1.1 µM in experiment [3]; 8.6 ± 2.3 µM in experiment [4]; 62 ± 12.6 µM in experiment [5].
As to `CC1=CC(OC=C2C(=O)OC3c4ccccc4CC23)OC1=O` (racemic) [rac-GR24], in experiment [6], the “X-ray crystal structure (soak), 2.3 Å” value is “hydrolyzed lactone D-ring of rac-GR24 covalently linked to S169 of the catalytic triad”. Further, the ΔTm – broadly, the change in melting temperature against a reference sample – in experiment [7] was “+1.0 °C”; in experiment [8], −5.0 °C.
